Reference: patent US5081023A, “Antibiotic L53-18A and process for preparation thereof” (Toyo Yozo Company, Ltd., priority 1989, dated 1992)
In brackets after ≈: the same amount, converted by molar mass. Where two headings read alike, the source gives them in different places.

Legend:
[1] = test system: Klebsiella pneumoniae NCTC 9632; experiment: Antimicrobial activity (MIC), Table 1; format: cell-based; settings: NCTC9632, read-out: Minimum growth inhibitory concentration
[2] = test system: Pseudomonas aeruginosa IAM 1095; experiment: Antimicrobial activity (MIC), Table 1; format: cell-based; settings: IAM1095, read-out: Minimum growth inhibitory concentration
Sarcina lutea ATCC 9341 = experiment: Antimicrobial activity (MIC), Table 1; format: cell-based; settings: Micrococcus luteus, ATCC9341, read-out: Minimum growth inhibitory concentration
[3] = test system: Bacillus subtilis ATCC 6633; experiment: Antimicrobial activity (MIC), Table 1; format: cell-based; settings: ATCC6633, read-out: Minimum growth inhibitory concentration
[4] = test system: Streptococcus agalactiae 1020; experiment: Antimicrobial activity (MIC), Table 1; format: cell-based; settings: read-out: Minimum growth inhibitory concentration
mice = experiment: Acute toxicity; format: in vivo; settings: ip, 10 per group, mice surviving at this dose
Procedure: (16) Acute toxicity: 300 mg/kg (ip) with surviving mice (10 mice per one group).

[5] = test system: Escherichia coli NIHJ JC-2; experiment: Antimicrobial activity (MIC), Table 1; format: cell-based; settings: NIHJJC2, read-out: Minimum growth inhibitory concentration
Gram-positive bacteria = experiment: Antibacterial activity; format: cell-based
[6] = test system: Streptococcus pyogenes N.Y.5; experiment: Antimicrobial activity (MIC), Table 1; format: cell-based; settings: read-out: Minimum growth inhibitory concentration
[7] = test system: Staphylococcus epidermidis ATCC 27626; experiment: Antimicrobial activity (MIC), Table 1; format: cell-based; settings: ATCC27626, read-out: Minimum growth inhibitory concentration
[8] = Distinction of acidic or basic; format: physicochemical
[9] = test system: Staphylococcus aureus FDA 209P JC-1; experiment: Antimicrobial activity (MIC), Table 1; format: cell-based; settings: FDA209P, read-out: Minimum growth inhibitory concentration
Solubility = format: physicochemical
[10] = test system: Saccharopolyspora sp. L53-18; experiment: Resistance to antibiotic (MIC), Table 3; format: cell-based
Description: [according to J. Antibiot. 32: 180-186 (1976)]

[11] = test system: Saccharopolyspora sp. L53-18; experiment: Resistance to lysozyme; format: cell-based; settings: producing strain L53-18
Description: (8) Resistance to lysozyme: sensitive [Inter. J. System. Bacteriol. 27: 176-178 (1977)]

[12] = resistance of producing strain L53-18 to antibiotics, read-out: MIC
[13] = resistance of producing strain L53-18 to antibiotics

Molecule: CC[C@H]1OC(=O)[C@H](C)[C@@H](O[C@H]2C[C@@](C)(OC)[C@@H](O)[C@H](C)O2)[C@H](C)[C@@H](O[C@@H]2O[C@H](C)C[C@H](N(C)C)[C@H]2O)[C@](C)(O)C[C@@H](C)C2=C(C)C(=O)[C@]1(C)O2 [Antibiotic L53-18A]
- MIC [1]: > 100 µg/mL
- MIC [2]: > 100 µg/mL
- MIC (Sarcina lutea ATCC 9341): < 0.05 µg/mL
- MIC [3]: < 0.05 µg/mL
- MIC [4]: < 0.05 µg/mL
- Acute toxicity (dose with surviving mice) (mice): 300 mg/kg
- MIC [5]: > 100 µg/mL
- antibacterial activity to Gram-positive bacteria (Gram-positive bacteria): shows antibacterial activity to Gram-positive bacteria
- MIC [6]: < 0.05 µg/mL
- MIC [7]: 0.2 µg/mL (≈ 0.28 µM)
- Distinction of acidic or basic [8]: basic
- MIC [9]: 0.2 µg/mL (≈ 0.28 µM)
- Solubility (Solubility): Soluble in methanol, ethanol, acetone, ethyl acetate, chloroform, benzene and acidic water

Molecule: NC[C@H]1O[C@H](O[C@H]2[C@H](O)[C@@H](O[C@H]3O[C@H](CO)[C@@H](O)[C@H](N)[C@H]3O)[C@H](N)C[C@@H]2N)[C@H](O)[C@@H](O)[C@@H]1O [Kanamycin]
- MIC [10]: 63 µg/mL (≈ 130 µM)

Molecule: CCCC(=O)O[C@H]1[C@H](C)O[C@@H](O[C@H]2[C@H](N(C)C)[C@@H](O)[C@H](O[C@H]3[C@@H](CC=O)C[C@@H](C)[C@@H](O)/C=C/C=C/C[C@@H](C)OC(=O)C[C@@H](O)[C@@H]3OC)O[C@@H]2C)C[C@@]1(C)O [Leucomycin A5]
- MIC [10, 12]: > 1000 µg/mL

Molecule: NC[C@@H]1O[C@H](O[C@H]2[C@@H](O)[C@H](O[C@@H]3[C@@H](O)[C@H](N)C[C@H](N)[C@H]3O[C@H]3O[C@H](CO)[C@@H](O)[C@H](O)[C@H]3N)O[C@@H]2CO)[C@H](N)[C@@H](O)[C@@H]1O [Paromomycin]
- MIC [10, 12]: 31 µg/mL (≈ 50.4 µM)

Molecule: CO[C@H]1/C=C/O[C@@]2(C)Oc3c(C)c(O)c4c(O)c(c(/C=N/N5CCN(C)CC5)c(O)c4c3C2=O)NC(=O)/C(C)=C\C=C\[C@H](C)[C@H](O)[C@@H](C)[C@@H](O)[C@@H](C)[C@H](OC(C)=O)[C@@H]1C [Rifampicin]
- MIC [10, 12]: < 16 µg/mL

Molecule: CN[C@@H]1[C@H](O)[C@H](NC)[C@H]2O[C@@]3(O)C(=O)C[C@@H](C)O[C@H]3O[C@@H]2[C@H]1O [Spectinomycin]
- MIC [10, 12]: > 1000 µg/mL

Molecule: [H]/N=C(/N)N[C@H]1[C@H](O)[C@@H](O)[C@H](O[C@@H]2O[C@@H](C)[C@](O)(C=O)[C@H]2O[C@@H]2O[C@@H](CO)[C@H](O)[C@@H](O)[C@@H]2NC)[C@@H](N/C(N)=N\[H])[C@@H]1O [Streptomycin]
- MIC [10, 12]: 31 µg/mL (≈ 53.3 µM)

Molecule: Gentamicin
- MIC [10, 13]: 16 µg/mL

Molecule: Neomycin
- MIC [10, 13]: 63 µg/mL

Molecule: lysozyme
- Resistance to lysozyme [11]: sensitive
